Results from US8378104B2 (OSI Pharmaceuticals, LLC, priority 2010, dated 2013).
pIC50: −log10 of the molar value. Structures can show the parent of a compound that is named as a salt.

Assays:
pJNK in HCT-116 cells = experiment: Phospho-JNK (Thr183/Tyr185) Meso Scale ELISA assay, TNFα-stimulated HCT-116 cells; type: cell-based; conditions: Homo sapiens, read-out: mean HCT-116 pJNK ELISA IC50 (Col. B)
In short: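 HCT-116 cells in 1% FCS medium were pretreated with compound for 4 hrs at 37° C, then stimulated with TNFα at 10 ng/mL final for 10 minutes. Lysates were taken in ice-cold lysis buffer with phosphatase and protease inhibitors, and phospho-JNK (Thr183/Tyr185) was measured by Meso Scale ELISA.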

TAK1-TAB1 fusion protein = biological target: T1, TAK1-TAB1 fusion protein (Homo sapiens, UniProt O43318); experiment: TAK1 biochemical assay (AlphaScreen, GST-MAP2K7 substrate); conditions: TAK1-TAB1 fusion protein, GST-MAP2K7 substrate; read-out: mean TAK1 IC50 (Col. A)
T1 construct: purchased Carna
T1 sequence (O43318 with tags, fused parts or gaps limits assumed): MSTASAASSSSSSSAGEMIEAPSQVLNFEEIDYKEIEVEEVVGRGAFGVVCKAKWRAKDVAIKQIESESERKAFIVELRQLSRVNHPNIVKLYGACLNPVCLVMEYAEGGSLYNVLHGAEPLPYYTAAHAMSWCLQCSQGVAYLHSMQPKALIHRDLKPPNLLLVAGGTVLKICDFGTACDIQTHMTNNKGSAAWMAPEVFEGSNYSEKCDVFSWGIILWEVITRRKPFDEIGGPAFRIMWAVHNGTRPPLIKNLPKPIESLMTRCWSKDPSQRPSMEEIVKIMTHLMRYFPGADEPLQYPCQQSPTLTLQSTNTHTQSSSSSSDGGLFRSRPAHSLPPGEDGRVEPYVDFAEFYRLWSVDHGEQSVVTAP

Structure (SMILES)	pIC50 (pJNK in HCT-116 cells)	pIC50 (TAK1-TAB1 fusion protein)
Nc1ncc(-c2cnn(C3CCN(C(=O)CCc4ccccc4)CC3)c2)c2cc(-c3csc4cnccc34)oc12 [Example 331, 1-{4-[4-(7-amino-2-thieno[2,3-c]pyridin-3-yl-furo[2,3-c]pyridin-4-yl)-pyrazol-1-yl]-piperidin-1-yl}-3-phenyl-propan-1-one]	6.00 to 7.00	6.00 to 7.00
Nc1ncc(-c2cnn(C3CCN(C(=O)CCN4CCCCC4)CC3)c2)c2cc(-c3csc4cnccc34)oc12 [Example 332, 1-{4-[4-(7-amino-2-thieno[2,3-c]pyridin-3-yl-furo[2,3-c]pyridin-4-yl)-pyrazol-1-yl]-piperidin-1-yl}-3-piperidin-1-yl-propan-1-one]	6.00 to 7.00	> 7.00
CC(C)CNC(=O)N1CCC(n2cc(-c3cnc(N)c4oc(-c5cccc6cnsc56)cc34)cn2)CC1 [Example 338, 4-[4-(7-amino-2-benzo[d]isothiazol-7-yl-furo[2,3-c]pyridin-4-yl)-pyrazol-1-yl]-piperidine-1-carboxylic acid isobutyl-amide]	6.00 to 7.00	6.00 to 7.00
Nc1ncc(-c2cnn(C3CCN(C(=O)Nc4cccc5c4CCCC5)CC3)c2)c2cc(-c3cccc4cnsc34)oc12 [Example 340, 4-[4-(7-amino-2-benzo[d]isothiazol-7-yl-furo[2,3-c]pyridin-4-yl)-pyrazol-1-yl]-piperidine-1-carboxylic acid (5,6,7,8-tetrahydro-naphthalen-1-yl)-amide]	6.00 to 7.00	6.00 to 7.00
Nc1ncc(-c2cnn(C3CCN(C(=O)NCC4CCCCC4)CC3)c2)c2cc(-c3cccc4cnsc34)oc12 [Example 341, 4-[4-(7-amino-2-benzo[d]isothiazol-7-yl-furo[2,3-c]pyridin-4-yl)-pyrazol-1-yl]-piperidine-1-carboxylic acid cyclohexylmethyl-amide]	> 7.00	6.00 to 7.00
COCCCn1cc(-c2cnc(N)c3oc(-c4csc5cnccc45)cc23)cn1 [Example 342, 4-[1-(3-methoxy-propyl)-1H-pyrazol-4-yl]-2-thieno[2,3-c]pyridin-3-yl-furo[2,3-c]pyridin-7-ylamine]	6.00 to 7.00	6.00 to 7.00
CN(C)C(=O)CCn1cc(-c2cnc(N)c3oc(-c4csc5cnccc45)cc23)cn1 [Example 346, 3-[4-(7-amino-2-thieno[2,3-c]pyridin-3-yl-furo[2,3-c]pyridin-4-yl)-pyrazol-1-yl]-N,N-dimethyl-propionamide]	5.00 to 6.00	6.00 to 7.00
COc1nn([C@H]2CC[C@H](O)CC2)cc1-c1cnc(N)c2oc(-c3cccc4nnsc34)cc12 [Example 347, trans-4-{4-[7-amino-2-(1,2,3-benzothiadiazol-7-yl)furo[2,3-c]pyridin-4-yl]-3-methoxy-1H-pyrazol-1-yl}cyclohexanol diformate salt]	> 7.00	> 7.00
COCc1nc2cccc(-c3cc4c(-c5cnn(C6CCN(C(C)=O)CC6)c5)cnc(N)c4o3)c2s1 [Example 348, 1-[4-(4-{7-amino-2-[2-(methoxymethyl)-1,3-benzothiazol-7-yl]furo[2,3-c]pyridin-4-yl}-1H-pyrazol-1-yl)piperidin-1-yl]ethanone trifluoroacetate]	> 7.00	> 7.00
COCc1nc2cccc(-c3cc4c(-c5cnn([C@H]6CC[C@H](O)CC6)c5)cnc(N)c4o3)c2s1 [Example 349, trans-4-(4-{7-amino-2-[2-(methoxymethyl)-1,3-benzothiazol-7-yl]furo[2,3-c]pyridin-4-yl}-1H-pyrazol-1-yl)cyclohexanol Trifluoroacetate (salt)]	> 7.00	> 7.00
CNc1nc2cccc(-c3cc4c(-c5cnn(C6CCN(C(C)=O)CC6)c5)cnc(N)c4o3)c2s1 [Example 350, 1-[4-(4-{7-amino-2-[2-(methylamino)-1,3-benzothiazol-7-yl]furo[2,3-d]pyridin-4-yl}-1H-pyrazol-1-yl)piperidin-1-yl]ethanone trifluoroacetate]	> 7.00	> 7.00
CNc1nc2cccc(-c3cc4c(-c5cnn([C@H]6CC[C@H](O)CC6)c5)cnc(N)c4o3)c2s1 [Example 351, trans-4-(4-{7-amino-2-[2-(methylamino)-1,3-benzothiazol-7-yl]furo[2,3-c]pyridin-4-yl}-1H-pyrazol-1-yl)cyclohexanol Trifluoroacetate (Salt)]	> 7.00	> 7.00
CCNc1nc2cccc(-c3cc4c(-c5cnn(C6CCN(C(C)=O)CC6)c5)cnc(N)c4o3)c2s1 [Example 354, 1-[4-(4-{7-amino-2-[2-(ethylamino)-1,3-benzothiazol-7-yl]furo[2,3-d]pyridin-4-yl}-1H-pyrazol-1-yl)piperidin-1-yl]ethanone trifluoroacetate]	> 7.00	> 7.00
CCNc1nc2cccc(-c3cc4c(-c5cnn([C@H]6CC[C@H](O)CC6)c5)cnc(N)c4o3)c2s1 [Example 355, trans-4-(4-{7-amino-2-[2-(ethylamino)-1,3-benzothiazol-7-yl]furo[2,3-c]pyridin-4-yl}-1H-pyrazol-1-yl)cyclohexanol Trifluoroacetate (Salt)]	> 7.00	> 7.00
Nc1ncc(-c2cnn([C@H]3CC[C@H](O)CC3)c2)c2cc(-c3csc4cnc(O)cc34)oc12 [Example 360, 3-{7-Amino-4-[1-(trans-4-hydroxycyclohexyl)-1H-pyrazol-4-yl]furo[2,3-c]pyridin-2-yl}thieno[2,3-c]pyridin-5-ol]	5.00 to 6.00	6.00 to 7.00
[2H]C([2H])([2H])Nc1ncc(-c2cnn([C@H]3CC[C@H](O)CC3)c2)c2cc(-c3cccc4nnsc34)oc12 [Example 361, trans-4-(4-{2-(1,2,3-benzothiadiazol-7-yl)-7-[(^2H3)methylamino]furo[2,3-c]pyridin-4-yl}-1H-pyrazol-1-yl)cyclohexanol]	> 7.00	> 7.00
Cc1c(-c2cccc3nnsc23)oc2c(N)ncc(-c3cnn([C@H]4CC[C@H](O)CC4)c3)c12 [Example 362, trans-4-{4-[7-amino-2-(1,2,3-benzothiadiazol-7-yl)-3-methylfuro[2,3-c]pyridin-4-yl]-1H-pyrazol-1-yl}cyclohexanol]	> 7.00	> 7.00
CC(=O)N1CCC(n2cc(-c3cnc(N)c4oc(-c5nn(C)c6cnccc56)cc34)cn2)CC1 [Example 363, 1-(4-{4-[7-amino-2-(1-methyl-1H-pyrazolo[3,4-c]pyridin-3-yl)furo[2,3-c]pyridin-4-yl]-1H-pyrazol-1-yl}piperidin-1-yl)ethanone trifluoroacetic acid salt]	6.00 to 7.00	> 7.00
CC(=O)N1CCC(n2cc(-c3cnc(N)c4oc(-c5c6ccncc6nn5C)cc34)cn2)CC1 [Example 364, 1-(4-{4-[7-amino-2-(2-methyl-2H-pyrazolo[3,4-c]pyridin-3-yl)furo[2,3-c]pyridin-4-yl]-1H-pyrazol-1-yl}piperidin-1-yl)ethanone trifluoroacetic Acid Salt]	5.00 to 6.00	6.00 to 7.00
Nc1ncc(-c2cnn([C@H]3CC[C@H](O)CC3)c2)c2cc(-c3cccn4cncc34)oc12 [Example 365, trans-4-{4-[7-amino-2-(imidazo[1,5-a]pyridin-8-yl)furo[2,3-c]pyridin-4-yl]-1H-pyrazol-1-yl}cyclohexanol.diformate]	> 7.00	> 7.00
Nc1ncc(-c2cnn([C@H]3CC[C@H](O)CC3)c2)c2cc(-c3cccc4cnncc34)oc12 [Example 366, trans-4-{4-[7-amino-2-(phthalazin-5-yl)furo[2,3-c]pyridin-4-yl]-1H-pyrazol-1-yl}cyclohexanol]	> 7.00	> 7.00
CC(=O)N1CCC(n2cc(-c3cnc(N)c4oc(-c5cccc6cnncc56)cc34)cn2)CC1 [Example 367, 1-(4-{4-[7-amino-2-(phthalazin-5-yl)furo[2,3-c]pyridin-4-yl]-1H-pyrazol-1-yl}piperidin-1-yl)ethanone]	6.00 to 7.00	6.00 to 7.00
Nc1ncc(-c2cnn([C@H]3CC[C@H](O)CC3)c2)c2cc(-c3ccccc3)oc12 [Example 368, trans-4-[4-(7-amino-2-phenylfuro[2,3-c]pyridin-4-yl)-1H-pyrazol-1-yl]cyclohexanol]	6.00 to 7.00	6.00 to 7.00
N#Cc1cc(-c2cc3c(-c4cnn([C@H]5CC[C@H](O)CC5)c4)cnc(N)c3o2)c2snnc2c1 [Example 370, 7-{7-amino-4-[1-(trans-4-hydroxycyclohexyl)-1H-pyrazol-4-yl]furo[2,3-c]pyridin-2-yl}-1,2,3-benzothiadiazole-5-carbonitrile]	> 7.00	6.00 to 7.00
N#Cc1ccc2cnsc2c1-c1cc2c(-c3cnn([C@H]4CC[C@H](O)CC4)c3)cnc(N)c2o1 [Example 372, 7-{7-amino-4-[1-(trans-4-hydroxycyclohexyl)-1H-pyrazol-4-yl]furo[2,3-c]pyridin-2-yl}-1,2-benzothiazole-6-carbonitrile.diformate]	6.00 to 7.00	5.00 to 6.00
Cc1cc(-c2cc3c(-c4cnn([C@H]5CC[C@H](O)CC5)c4)cnc(N)c3o2)c2snnc2c1 [Example 373, trans-4-{4-[7-amino-2-(5-methyl-1,2,3-benzothiadiazol-7-yl)furo[2,3-c]pyridin-4-yl]-1H-pyrazol-1-yl}cyclohexanol]	> 7.00	> 7.00
